Where two headings read alike, the source gives them in different places.
What was measured:
[1] = target: T1, wheat endosperm ADP-glucose pyrophosphorylase (Triticum aestivum, UniProt P12299+P30523); assay: Screen of 3-phosphoglycerate analogues for antagonism of phosphate inhibition; assay type: biochemical; set-up: Partially-purified wheat endosperm ADP-glucose pyrophosphorylase; from tissue; host or cells: wheat endosperm; details: compound 3 mM, 1 mM phosphate
T1 sequence (P12299 63-522): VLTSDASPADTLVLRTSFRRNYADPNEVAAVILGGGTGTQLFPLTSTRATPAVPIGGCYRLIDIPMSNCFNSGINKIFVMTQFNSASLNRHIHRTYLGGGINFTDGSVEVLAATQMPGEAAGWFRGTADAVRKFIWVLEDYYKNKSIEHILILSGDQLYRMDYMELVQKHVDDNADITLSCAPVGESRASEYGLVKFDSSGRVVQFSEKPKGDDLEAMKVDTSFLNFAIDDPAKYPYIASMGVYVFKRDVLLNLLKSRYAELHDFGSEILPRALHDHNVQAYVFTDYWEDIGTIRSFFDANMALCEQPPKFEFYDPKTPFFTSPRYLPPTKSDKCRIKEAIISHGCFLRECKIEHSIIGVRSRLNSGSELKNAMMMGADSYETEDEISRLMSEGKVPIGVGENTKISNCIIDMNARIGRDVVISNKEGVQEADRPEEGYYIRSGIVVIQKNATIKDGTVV
T1 sequence (P30523 1-473): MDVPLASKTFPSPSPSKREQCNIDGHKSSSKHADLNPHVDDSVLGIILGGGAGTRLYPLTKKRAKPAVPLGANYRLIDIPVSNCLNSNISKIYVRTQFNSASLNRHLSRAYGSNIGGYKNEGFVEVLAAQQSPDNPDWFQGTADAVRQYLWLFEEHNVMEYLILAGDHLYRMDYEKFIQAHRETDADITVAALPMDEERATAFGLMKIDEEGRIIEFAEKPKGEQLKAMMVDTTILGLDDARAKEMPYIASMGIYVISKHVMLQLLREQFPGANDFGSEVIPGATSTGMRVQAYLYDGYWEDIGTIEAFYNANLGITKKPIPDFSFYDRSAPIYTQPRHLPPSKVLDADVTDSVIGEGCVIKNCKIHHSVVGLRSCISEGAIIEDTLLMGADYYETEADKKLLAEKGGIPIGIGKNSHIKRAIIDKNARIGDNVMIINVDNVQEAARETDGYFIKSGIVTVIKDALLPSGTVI
Procedure: There is clear evidence that the wheat endosperm enzyme has allosteric properties by virtue of being inhibited by phosphate and the inhibition being partially relieved by 3-phosphoglycerate. […] A careful analysis of various chemical that were chemically very closely related to 3-phosphoglycerate was carried out.
Seventeen compounds were tested at 3 mM concentration for their ability to antagonise the inhibition of the enzyme by 1 mM phosphate. The first series of compounds tested were phosphonate analogues of 3-phosphoglycerate. […] The second series tested were derivatives bearing structural similarity to 3-phosphoglycerate. Of these, only one compound gave weak alleviation of phosphate inhibition.

[2] = target: T1, wheat endosperm ADP-glucose pyrophosphorylase
[3] = system: plant leaf ADP-glucose pyrophosphorylase; details: cited from earlier work; for activation in vitro: all plant leaf enzymes studied
[4] = target: T2, ADP-glucose pyrophosphorylase enzyme from rice endosperm (Oryza sativa subsp. japonica, UniProt P15280+Q7G065); details: 5 mM 3-phosphoglycerate; cited from earlier work
T2 construct: host or cells: rice endosperm
T2 sequence (P15280 1-479 isoform P15280-2): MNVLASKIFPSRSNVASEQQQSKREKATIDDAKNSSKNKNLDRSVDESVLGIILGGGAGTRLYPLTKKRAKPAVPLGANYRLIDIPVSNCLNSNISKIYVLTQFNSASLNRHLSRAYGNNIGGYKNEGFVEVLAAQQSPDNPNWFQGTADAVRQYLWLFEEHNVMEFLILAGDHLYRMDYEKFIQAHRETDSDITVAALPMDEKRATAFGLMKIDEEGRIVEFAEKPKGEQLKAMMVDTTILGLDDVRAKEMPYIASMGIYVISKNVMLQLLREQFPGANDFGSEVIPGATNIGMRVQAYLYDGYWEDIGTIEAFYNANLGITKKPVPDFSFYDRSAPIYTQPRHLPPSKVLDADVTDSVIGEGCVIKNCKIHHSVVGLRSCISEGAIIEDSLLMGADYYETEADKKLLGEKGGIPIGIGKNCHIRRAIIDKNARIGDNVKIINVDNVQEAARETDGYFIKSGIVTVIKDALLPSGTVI
T2 sequence (Q7G065 1-518): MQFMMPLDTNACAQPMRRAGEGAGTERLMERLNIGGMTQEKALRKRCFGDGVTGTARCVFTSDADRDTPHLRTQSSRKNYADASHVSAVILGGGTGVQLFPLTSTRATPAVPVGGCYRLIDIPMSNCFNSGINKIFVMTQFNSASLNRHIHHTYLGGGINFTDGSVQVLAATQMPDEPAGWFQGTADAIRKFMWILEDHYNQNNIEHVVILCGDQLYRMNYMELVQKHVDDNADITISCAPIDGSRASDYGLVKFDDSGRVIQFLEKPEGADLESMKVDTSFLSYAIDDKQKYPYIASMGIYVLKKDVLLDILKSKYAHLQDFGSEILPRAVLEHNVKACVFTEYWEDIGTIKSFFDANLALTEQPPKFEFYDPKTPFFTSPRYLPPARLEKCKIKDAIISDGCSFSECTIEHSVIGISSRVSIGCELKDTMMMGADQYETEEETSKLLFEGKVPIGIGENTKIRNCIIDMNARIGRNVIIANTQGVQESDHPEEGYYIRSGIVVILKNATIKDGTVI

[5] = target: T3, wheat leaf ADP-glucose pyrophosphorylase (Triticum aestivum, UniProt P12298); assay: biochemical; details: read-out: fold activation of enzyme
T3 sequence (P12298 1-301): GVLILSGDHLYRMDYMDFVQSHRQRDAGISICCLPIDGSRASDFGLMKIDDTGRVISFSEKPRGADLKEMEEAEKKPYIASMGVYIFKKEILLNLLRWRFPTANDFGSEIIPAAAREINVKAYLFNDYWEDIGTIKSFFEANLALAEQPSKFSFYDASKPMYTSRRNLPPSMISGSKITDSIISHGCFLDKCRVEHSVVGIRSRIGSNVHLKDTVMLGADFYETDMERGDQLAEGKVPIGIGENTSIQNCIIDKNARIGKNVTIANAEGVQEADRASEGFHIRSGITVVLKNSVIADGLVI
T3 sequence (P30523 2-473 partner): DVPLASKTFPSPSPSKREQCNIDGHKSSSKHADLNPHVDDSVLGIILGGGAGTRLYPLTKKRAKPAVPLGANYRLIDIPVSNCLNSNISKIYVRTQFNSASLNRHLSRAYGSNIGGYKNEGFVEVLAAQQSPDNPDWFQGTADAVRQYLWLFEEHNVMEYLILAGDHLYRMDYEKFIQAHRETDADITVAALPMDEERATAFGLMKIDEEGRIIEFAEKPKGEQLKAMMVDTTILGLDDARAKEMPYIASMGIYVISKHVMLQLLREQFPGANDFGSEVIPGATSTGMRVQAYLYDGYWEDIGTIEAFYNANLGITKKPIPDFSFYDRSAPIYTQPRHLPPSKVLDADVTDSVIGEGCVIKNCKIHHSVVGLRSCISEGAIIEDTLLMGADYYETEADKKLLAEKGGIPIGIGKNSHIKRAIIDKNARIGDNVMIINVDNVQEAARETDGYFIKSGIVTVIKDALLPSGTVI

[6] = target: T3, wheat leaf ADP-glucose pyrophosphorylase; details: read-out: concentration required to achieve half-maximal inhibition of enzyme activity

## O=S(=O)(O)O [Sulphate]
[1]
  antagonism of inhibition of the enzyme by phosphate: antagonised phosphate inhibition

## O=C(O)CC(CP(=O)(O)O)C(=O)O (centres unmarked) [phosphonomethyl-butanedioic acid]
[1]
  antagonism of inhibition of the enzyme by phosphate: weak antagonism of phosphate inhibition

## O=C(COP(=O)(O)O)[C@@H](O)[C@H](O)[C@H](O)COP(=O)(O)O [fructose-1,6-bisphosphate]
[2]; wheat endosperm enzyme
  activation of enzyme by fructose-1,6-bisphosphate: lack of detectable activation
[3]
  activation in vitro: to a lesser extent

## O=C(CO)[C@@H](O)[C@H](O)[C@H](O)COP(=O)(O)O [Fructose-6-phosphate, fructose-6-phosphate]
[2]; wheat endosperm enzyme
  alleviation of phosphate inhibition: weakly alleviates phosphate inhibition
[3]
  activation in vitro: to a lesser extent

## C=C(OP(=O)(O)O)C(=O)O [phosphoenol pyruvate]
[3]
  activation in vitro: to a lesser extent

## O=C(O)C(O)COP(=O)(O)O (centres unmarked) [3-phosphoglycerate]
[4]
  fold activation in vitro: 1,2 fold
[5]
  fold induction at 100 µM: 14.5
  fold induction at 1000 µM: 10

## O=P(O)(O)O [orthophosphate]
[2]; read-out: I0.5 value for orthophosphate, in the presence of 1 mM 3-phosphoglycerate
  IC50: 1500 µM
[2]; read-out: concentration required to achieve half-maximal inhibition of enzyme activity, wheat endosperm enzyme
  IC50: 700 µM
[6]
  IC50: 56 µM
[3]; enzymes from plant leaves, in vitro, read-out: orthophosphate concentration for half-maximal inhibition of enzyme activity
  IC50: < 100 µM

Source: US5792920A, “Plants with altered ability to synthesize starch and process for obtaining them” (Imperial Chemical Industries PLC, priority 1988, dated 1998)
